Experimental data taken from patent US20260015350A1, “AZAQUINAZOLINE PAN-KRAS INHIBITORS” (Mirati Therapeutics, Inc., priority 2022, published 2026).

Tests used:
KRas^G12V = molecular target: T1, KRas^G12V (Homo sapiens, UniProt P01116, G12V); assay: KRas binding assay (TR-FRET tracer displacement), KRas G12V
T1 construct: Biotinylated KRas (corresponding to amino acids 1-169, produced at Accelegan Inc.); biotin (biotinylated); purchased Accelegan Inc

KRas^G12D = molecular target: T2, KRas^G12D (Homo sapiens, UniProt P01116, G12D); assay: KRas binding assay (TR-FRET tracer displacement), KRas G12D
T2 construct: Biotinylated KRas (corresponding to amino acids 1-169, produced at Accelegan Inc.); biotin (biotinylated); purchased Accelegan Inc

[1] = system: KRas-mediated phosphorylation of ERK in AsPC-1 cells; assay: Inhibition of KRas-mediated phosphorylation of ERK (Cisbio HTRF pERK), AsPC-1 cells; format: cell-based; conditions: Homo sapiens, ASPC1, AsPC-1 cells; HTRF pERK
Summary of the method: (§1)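 Compound treatment lasts 3 hrs on 6,000 seeded cells, testing 10 doses from a 10 uM top concentration in 3-fold decrements at 0.8% final DMSO. Trametinib at 0.2 uM defines the Min signal. Detection is HTRF on cold-lysed cell extracts.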

KRas^G12R = molecular target: T3, KRas^G12R (Homo sapiens, UniProt P01116, G12R); assay: KRas binding assay (TR-FRET tracer displacement), KRas G12R
T3 construct: Biotinylated KRas (corresponding to amino acids 1-169, produced at Accelegan Inc.); biotin (biotinylated); purchased Accelegan Inc

[2] = system: KRas-mediated phosphorylation of ERK in H727 cells; assay: Inhibition of KRas-mediated phosphorylation of ERK (Cisbio HTRF pERK), H727 cells; format: cell-based; conditions: Homo sapiens, NCI-H727, H727 cells; HTRF pERK
Summary of the method: as §1

T1 sequence (P01116 1-169 isoform P01116-2 G12V): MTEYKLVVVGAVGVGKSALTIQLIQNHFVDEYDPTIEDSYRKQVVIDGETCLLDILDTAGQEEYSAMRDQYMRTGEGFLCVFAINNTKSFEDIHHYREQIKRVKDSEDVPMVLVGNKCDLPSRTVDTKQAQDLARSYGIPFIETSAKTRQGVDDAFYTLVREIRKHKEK
T3 sequence (P01116 1-169 isoform P01116-2 G12R): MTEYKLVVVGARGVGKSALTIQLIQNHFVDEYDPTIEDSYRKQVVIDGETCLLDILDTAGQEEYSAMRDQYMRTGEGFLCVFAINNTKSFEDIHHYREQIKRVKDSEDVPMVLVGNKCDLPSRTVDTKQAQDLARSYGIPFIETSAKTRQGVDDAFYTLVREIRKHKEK
T2 sequence (P01116 1-169 isoform P01116-2 G12D): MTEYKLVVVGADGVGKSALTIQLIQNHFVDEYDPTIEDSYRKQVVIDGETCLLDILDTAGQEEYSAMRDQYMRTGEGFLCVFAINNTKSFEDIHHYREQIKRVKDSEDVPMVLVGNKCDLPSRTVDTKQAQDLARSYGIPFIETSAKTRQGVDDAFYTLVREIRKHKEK

CCc1c(F)ccc2cc(O)cc(-c3ncc4c(N5CCOCC(P(C)(C)=O)C5)nc(OC[C@@]56CCCN5C[C@H](F)C6)nc4c3F)c12 (stereo partly drawn) [Example 629, (4-(7-(8-ethyl-7-fluoro-3-hydroxynaphthalen-1-yl)-8-fluoro-2-(((2R,7aS)-2-fluorohexahydro-1H-pyrrolizin-7a-yl)methoxy)pyrido[4,3-d]pyrimidin-4-yl)-1,4-oxazepan-6-yl)dimethylphosphine oxide]
IC50 (KRas^G12V): 15 nM | IC50 (KRas^G12D): 65 nM | IC50 [1]: > 10000 nM | IC50 (KRas^G12R): 37 nM | IC50 [2]: > 10000 nM

CCc1c(F)ccc2cc(O)cc(-c3ncc4c(N[C@@H]5C[C@@H](C)S(=O)(=O)[C@@H](C)C5)nc(OC[C@@]56CCCN5C[C@H](F)C6)nc4c3F)c12 [Example 630, (2R,4s,6S)-4-((7-(8-ethyl-7-fluoro-3-hydroxynaphthalen-1-yl)-8-fluoro-2-(((2R,7aS)-2-fluorohexahydro-1H-pyrrolizin-7a-yl)methoxy)pyrido[4,3-d]pyrimidin-4-yl)amino)-2,6-dimethyltetrahydro-2H-thiopyran 1,1-dioxide]
IC50 (KRas^G12V): 93 nM | IC50 (KRas^G12D): 796 nM | IC50 [1]: > 10000 nM | IC50 (KRas^G12R): 34 nM | IC50 [2]: 4420 nM

CCc1c(F)ccc2cc(O)cc(-c3ncc4c(N5CCCC(S(N)(=O)=O)CC5)nc(OC[C@@]56CCCN5C[C@H](F)C6)nc4c3F)c12 (stereo partly drawn) [Example 631, 1-(7-(8-ethyl-7-fluoro-3-hydroxynaphthalen-1-yl)-8-fluoro-2-(((2R,7aS)-2-fluorotetrahydro-1H-pyrrolizin-7a(5H)-yl)methoxy)pyrido[4,3-d]pyrimidin-4-yl)azepane-4-sulfonamide]
IC50 (KRas^G12V): 12 nM | IC50 (KRas^G12D): 9 nM | IC50 [1]: 3130 nM | IC50 (KRas^G12R): 33 nM | IC50 [2]: 1600 nM

CCc1c(F)ccc2cc(O)cc(-c3ncc4c(NS(=O)(=O)C5CCCNCC5)nc(OC[C@@]56CCCN5C[C@H](F)C6)nc4c3F)c12 (stereo partly drawn) [Example 632, N-(7-(8-ethyl-7-fluoro-3-hydroxynaphthalen-1-yl)-8-fluoro-2-(((2R,7aS)-2-fluorotetrahydro-1H-pyrrolizin-7a(5H)-yl)methoxy)pyrido[4,3-d]pyrimidin-4-yl)azepane-4-sulfonamide]
IC50 (KRas^G12V): 1200 nM | IC50 (KRas^G12D): 2180 nM | IC50 [1]: > 10000 nM | IC50 (KRas^G12R): 1870 nM | IC50 [2]: > 10000 nM

CCc1c(F)ccc2cc(O)cc(-c3ncc4c(N5Cc6n[nH]c(C(=O)N(C)C)c6C5)nc(OC[C@@]56CCCN5C[C@H](F)C6)nc4c3F)c12 [Example 635, 5-(7-(8-ethyl-7-fluoro-3-hydroxynaphthalen-1-yl)-8-fluoro-2-(((2R,7aS)-2-fluorotetrahydro-1H-pyrrolizin-7a(5H)-yl)methoxy)pyrido[4,3-d]pyrimidin-4-yl)-N,N-dimethyl-2,4,5,6-tetrahydropyrrolo[3,4-c]pyrazole-3-carboxamide]
IC50 (KRas^G12V): 454 nM | IC50 (KRas^G12D): 1640 nM | IC50 [1]: > 10000 nM | IC50 (KRas^G12R): 766 nM | IC50 [2]: > 10000 nM

CCc1c(F)ccc2cc(O)cc(-c3ncc4c(N5CCO[C@@H](CS(N)(=O)=O)C5)nc(OC[C@@]56CCCN5C[C@H](F)C6)nc4c3F)c12 [Example 636, 1-((R)-4-(7-(8-ethyl-7-fluoro-3-hydroxynaphthalen-1-yl)-8-fluoro-2-(((2R,7aS)-2-fluorotetrahydro-1H-pyrrolizin-7a(5H)-yl)methoxy)pyrido[4,3-d]pyrimidin-4-yl)morpholin-2-yl)methanesulfonamide]
IC50 (KRas^G12V): 3 nM | IC50 (KRas^G12D): 10 nM | IC50 [1]: 4190 nM | IC50 (KRas^G12R): < 2 nM | IC50 [2]: 1810 nM

CCc1c(F)ccc2cc(O)cc(-c3ncc4c(N5CCCC(N6C(=O)CCC6=O)C5)nc(OC[C@@]56CCCN5C[C@H](F)C6)nc4c3F)c12 (stereo partly drawn) [Example 638, 1-(1-(7-(8-ethyl-7-fluoro-3-hydroxynaphthalen-1-yl)-8-fluoro-2-(((2R,7aS)-2-fluorotetrahydro-1H-pyrrolizin-7a(5H)-yl)methoxy)pyrido[4,3-d]pyrimidin-4-yl)piperidin-3-yl)pyrrolidine-2,5-dione]
IC50 (KRas^G12V): 34 nM | IC50 (KRas^G12D): 41 nM | IC50 [1]: 930 nM | IC50 (KRas^G12R): 16 nM | IC50 [2]: 1270 nM

CCc1c(F)ccc2cc(O)cc(-c3ncc4c(NCc5cn(C(=O)N(C)C)nc5N)nc(OC[C@@]56CCCN5C[C@H](F)C6)nc4c3F)c12 [Example 639, 3-amino-4-(((7-(8-ethyl-7-fluoro-3-hydroxynaphthalen-1-yl)-8-fluoro-2-(((2R,7aS)-2-fluorohexahydro-1H-pyrrolizin-7a-yl)methoxy)pyrido[4,3-d]pyrimidin-4-yl)amino)methyl)-N,N-dimethyl-1H-pyrazole-1-carboxamide]
IC50 (KRas^G12V): 2 nM | IC50 (KRas^G12D): 13 nM | IC50 [1]: 1040 nM | IC50 (KRas^G12R): 2 nM | IC50 [2]: 718 nM

CCc1c(F)ccc2cc(O)cc(-c3ncc4c(N5C[C@@H]6[C@@H](CC(N)=O)NC(=O)[C@@H]6C5)nc(OC[C@@]56CCCN5C[C@H](F)C6)nc4c3F)c12 [Example 641, 2-((1R,3aS,6aR)-5-(7-(8-ethyl-7-fluoro-3-hydroxynaphthalen-1-yl)-8-fluoro-2-(((2R,7aS)-2-fluorotetrahydro-1H-pyrrolizin-7a(5H)-yl)methoxy)pyrido[4,3-d]pyrimidin-4-yl)-3-oxooctahydropyrrolo[3,4-c]pyrrol-1-yl)acetamide]
IC50 (KRas^G12V): 632 nM | IC50 (KRas^G12D): 3120 nM | IC50 [1]: > 10000 nM | IC50 (KRas^G12R): 540 nM | IC50 [2]: > 10000 nM

CCc1c(F)ccc2cc(O)cc(-c3ncc4c(N5C[C@@H]6[C@@H](C(F)(F)F)C[C@]6(CO)C5)nc(OC[C@@]56CCCN5C[C@H](F)C6)nc4c3F)c12 [Example 647, 5-ethyl-6-fluoro-4-(8-fluoro-2-(((2R,7aS)-2-fluorohexahydro-1H-pyrrolizin-7a-yl)methoxy)-4-((1R,5R,6S)-1-(hydroxymethyl)-6-(trifluoromethyl)-3-azabicyclo[3.2.0]heptan-3-yl)pyrido[4,3-d]pyrimidin-7-yl)naphthalen-2-ol]
IC50 (KRas^G12V): 581 nM | IC50 (KRas^G12D): 1990 nM | IC50 [1]: 9340 nM | IC50 (KRas^G12R): 582 nM | IC50 [2]: > 10000 nM

CCc1c(F)ccc2cc(O)cc(-c3ncc4c(N5CC6(CO)CC(C7CCCC7)(C5)C6)nc(OC[C@@]56CCCN5C[C@H](F)C6)nc4c3F)c12 [Example 648, 4-(4-(1-cyclopentyl-5-(hydroxymethyl)-3-azabicyclo[3.1.1]heptan-3-yl)-8-fluoro-2-(((2R,7aS)-2-fluorohexahydro-1H-pyrrolizin-7a-yl)methoxy)pyrido[4,3-d]pyrimidin-7-yl)-5-ethyl-6-fluoronaphthalen-2-ol]
IC50 (KRas^G12V): 6080 nM | IC50 (KRas^G12D): 9120 nM | IC50 [1]: > 10000 nM | IC50 (KRas^G12R): 7370 nM | IC50 [2]: > 10000 nM

CCc1c(F)ccc2cc(O)cc(-c3ncc4c(N5CCCC(S(=O)(=O)C(F)F)C5)nc(OC[C@@]56CCCN5C[C@H](F)C6)nc4c3F)c12 (stereo partly drawn) [Example 652, 4-(4-(3-((difluoromethyl)sulfonyl)piperidin-1-yl)-8-fluoro-2-(((2R,7aS)-2-fluorotetrahydro-1H-pyrrolizin-7a(5H)-yl)methoxy)pyrido[4,3-d]pyrimidin-7-yl)-5-ethyl-6-fluoronaphthalen-2-ol]
IC50 (KRas^G12V): 40 nM | IC50 (KRas^G12D): 125 nM | IC50 [1]: 2280 nM | IC50 (KRas^G12R): 51 nM | IC50 [2]: 1390 nM

CCc1c(F)ccc2cc(O)cc(-c3ncc4c(SCc5cc(C(=O)N(C)C)nn5C)nc(OC[C@@]56CCCN5C[C@H](F)C6)nc4c3F)c12 [Example 653, 5-(((7-(8-ethyl-7-fluoro-3-hydroxynaphthalen-1-yl)-8-fluoro-2-(((2R,7aS)-2-fluorohexahydro-1H-pyrrolizin-7a-yl)methoxy)pyrido[4,3-d]pyrimidin-4-yl)thio)methyl)-N,N,1-trimethyl-1H-pyrazole-3-carboxamide]
IC50 (KRas^G12V): 20 nM | IC50 (KRas^G12D): 123 nM | IC50 [1]: > 10000 nM | IC50 (KRas^G12R): 16 nM | IC50 [2]: > 10000 nM

CCc1c(F)ccc2cc(O)cc(-c3ncc4c(N5CCCC6(C5)CN(S(C)(=O)=O)C6)nc(OC[C@@]56CCCN5C[C@H](F)C6)nc4c3F)c12 [Example 654, 5-ethyl-6-fluoro-4-(8-fluoro-2-(((2R,7aS)-2-fluorohexahydro-1H-pyrrolizin-7a-yl)methoxy)-4-(2-(methylsulfonyl)-2,6-diazaspiro[3.5]nonan-6-yl)pyrido[4,3-d]pyrimidin-7-yl)naphthalen-2-ol]
IC50 (KRas^G12V): 25 nM | IC50 (KRas^G12D): 19 nM | IC50 [1]: 1410 nM | IC50 (KRas^G12R): 18 nM | IC50 [2]: 1790 nM

CCc1c(F)ccc2cc(O)cc(-c3ncc4c(N5CCC(N6CCCCS6(=O)=O)C5)nc(OC[C@@]56CCCN5C[C@H](F)C6)nc4c3F)c12 (stereo partly drawn) [Example 655, 2-(1-(7-(8-ethyl-7-fluoro-3-hydroxynaphthalen-1-yl)-8-fluoro-2-(((2R,7aS)-2-fluorotetrahydro-1H-pyrrolizin-7a(5H)-yl)methoxy)pyrido[4,3-d]pyrimidin-4-yl)pyrrolidin-3-yl)-1,2-thiazinane 1,1-dioxide]
IC50 (KRas^G12V): 291 nM | IC50 (KRas^G12D): 2880 nM | IC50 [1]: > 10000 nM | IC50 (KRas^G12R): 633 nM | IC50 [2]: > 10000 nM

CCc1c(F)ccc2cc(O)cc(-c3ncc4c(N5CCC(N6C(=O)OC7CNCC76)CC5)nc(OC[C@@]56CCCN5C[C@H](F)C6)nc4c3F)c12 (stereo partly drawn) [Example 659, 3-(1-(7-(8-ethyl-7-fluoro-3-hydroxynaphthalen-1-yl)-8-fluoro-2-(((2R,7aS)-2-fluorotetrahydro-1H-pyrrolizin-7a(5H)-yl)methoxy)pyrido[4,3-d]pyrimidin-4-yl)piperidin-4-yl)hexahydro-2H-pyrrolo[3,4-d]oxazol-2-one]
IC50 (KRas^G12V): 582 nM | IC50 (KRas^G12D): 462 nM | IC50 [1]: > 10000 nM | IC50 (KRas^G12R): 1610 nM | IC50 [2]: > 10000 nM
